The text below walks through data of PMC6017909, “Synthesis and Evaluation of the Tumor Cell Growth Inhibitory Potential of New Putative HSP90 Inhibitors” (Molecules : A Journal of Synthetic Chemistry and Natural …, 2018).

A short description of data set [1]: Viable cell number, trypan blue exclusion assay. Format: cell-based. As to conditions: human, NCI-H460 cells, read-out: Number of viable cells (in relation to Blank cells). Here is the method:
NCI-H460 cells were plated in 6-well plates (1 × 10^5 cells/well) in RPMI-1640 medium with UltraGlutamine I and 25 mM Hepes (Lonza) supplemented with 10% FBS (PAA) at 37 °C in a humidified incubator with 5% CO2 for 24 h. […] These concentrations corresponded respectively to 5.2 μM and 7.8 μM for compound 5 and to 3.2 μM and 4.8 μM for compound 8. Cells were also incubated with medium only (Blank) or with the vehicle (solvent, H2O), corresponding to the highest concentration used when testing the compounds. Following treatment with the compounds, cells were further processed as follows.
Cell number and % viable cells was determined with the Trypan blue exclusion assay.

In data set [2] the test system is NCI-H460. In words: Cell-counting assay, 72-h drug exposure. Format: cell-based. As to conditions: Homo sapiens, read-out: Cell Growth Inhibitory Activity NCI-H460 IC50 72 h. The text has this: For the cytotoxic activity studies and determination of GI50 concentrations in three different tumor cell lines, the cell culture conditions are described in Section 3.5. For the studies on the effect on % viable cells, cell cycle, cellular proliferation, and apoptosis, culture conditions are described in Section 3.6.1. For the remaining studies, the epithelial carcinoma cell line A431 and the non-small cell lung carcinoma cell line NCI-H460 were routinely grown in RPMI 1640 (Lonza, Vierviers, Belgium), supplemented with 10% (v/v) heat-inactivated fetal bovine serum (FBS, GIBCO, Invitrogen, Paisley, UK). The human peritoneal mesothelioma cell line STO was kindly provided by Dr. N. Zaffaroni (IRCCS Istituto Nazionale Tumori, Milan, Italy) and grown in 50/50 DMEM-Ham’s F12 medium (Lonza, Vierviers, Belgium), supplemented with 10% (v/v) heat-inactivated foetal bovine serum and 2 mM L-glutamine (L-Gln). All cell lines were maintained at 37 °C in a 5%/95% CO2/air atmosphere. All the compounds tested were freshly prepared by dissolving powder in dimethylsulfoxide (DMSO) (BDH Prolabo, Milan, Italy) and following dilution in culture medium. Cells were incubated with drugs for 48 h or 72 h (unless otherwise stated) at 37 °C in culture medium supplemented with 10% (v/v) heat-inactivated FBS; drug concentrations used for each assay and duration of treatments are reported in Legends to Figures.
Cellular sensitivity to drugs was evaluated by a cell-counting assay after 72-h drug exposure. Cells in the logarithmic phase of growth were seeded in duplicate into 6-well plates. Twenty-four hours after seeding, the drug was added to the medium. Cells were harvested 72 h after drug exposure and counted with a cell counter.

Data set [3] relates to NCI-H460. The data set is described as follows: Apoptosis, Annexin V-FITC/PI flow cytometry. Format: cell-based, human. As to conditions: for % Apoptosis: 48 h, sum of early and late apoptosis; for Induction of apoptosis at cytotoxic concentrations: GI50 and 1.5× GI50, 48 h, Annexin V and propidium iodide. Here is the method:
NCI-H460 cells were plated in 6-well plates (1 × 10^5 cells/well) in RPMI-1640 medium with UltraGlutamine I and 25 mM Hepes (Lonza) supplemented with 10% FBS (PAA) at 37 °C in a humidified incubator with 5% CO2 for 24 h. […] These concentrations corresponded respectively to 5.2 μM and 7.8 μM for compound 5 and to 3.2 μM and 4.8 μM for compound 8. Cells were also incubated with medium only (Blank) or with the vehicle (solvent, H2O), corresponding to the highest concentration used when testing the compounds. Following treatment with the compounds, cells were further processed as follows. Following 48 h treatment, the levels of apoptosis were assessed using the “Human AnnexinV-FITC/PI apoptosis” kit (Bender MedSystems, Wien, Austria) as previously described. Briefly, cell pellets were resuspended in binding buffer and further incubated with Annexin V-FITC and with propidium iodide. Samples were analyzed in a FACSCalibur flow cytometer (BD Biosciences, Erembodegem, Belgium), plotting at least 15,000 events and using the FlowJo 7.6.5 software (Tree Star, Inc., Ashland, OR, USA).
For orientation: In flow cytometry, cells or beads pass a laser one at a time.

Data set [4] relates to A431 squamous cell carcinoma xenografts. The data set is described as follows: Tumor growth of xenografted mouse model. It is filed as in vivo, nude mice. Here is the method:
Experiments were carried out using female athymic Swiss nude mice, 8–10 weeks old (Charles River, Calco, Italy). Mice were maintained in laminar flow rooms keeping temperature and humidity constant. Mice had free access to food and water. Experiments were approved by the Ethics Committee for Animal Experimentation of the Istituto Nazionale Tumori of Milan according to institutional guidelines. Epidermoid carcinoma cells, A-431 suspended in culture media were subcutaneously injected on the back of mice. When tumors were just palpable, the mice were randomly divided into two groups: control and compound-treated. Each group was constituted by 8 mice. Saline (0.9% NaCl) or compound solution (5 or 10 mg/kg, respectively) was i.p. administered daily during 3 weeks, to both groups. Tumor volume was assessed using calipers and determined according to the formula (d)^2xD/2.

The target in data set [5] is T1, HSP90 (Homo sapiens, UniProt P07900).
T1 construct: purchased Stressgen SPP-776
The data set is described as follows: HSP90 binding, fluorescence polarization with GM-FITC. The conditions noted are these: displacement of GM-FITC 5 nM, 30 nM HSP90, 4 °C, 4 h; read-out: Binding HSP90 (FP) IC50. As for the experimental part:
GM-FITC Geldanamycin-fluorescein-5-isothiocyanate (working concentration: 1–400 nM), supplied by Invivogen (06C23-MT, San Diego, CA, USA), was previously dissolved in DMSO to obtain 10 mM stock solutions and kept at −20 °C until use. […] The compounds were previously dissolved in DMSO to obtain stock solutions and kept at −20 °C. The day of experiment, the compounds were prepared by serial dilutions in assay buffer (HFB) containing 20 mM HEPES (K) pH 7.3, 50 mM KCl, 5 mM MgCl2, 20 mM Na2MoO4 and 0.01% NP40. Before each use, 0.1 mg/mL Bovine Gamma globulin and 2 mM DTT were freshly added. […] The plate was mixed on a shaker at 4 °C for 4 h, and the FP values in mP (millipolarization units) were recorded. […] Curve fitting was performed using Prism GraphPad software program (GraphPad software, Inc., San Diego, CA, USA).
(Fluorescence polarisation rises when a labelled molecule tumbles more slowly, as on binding a larger partner.)

On to `O=c1c2ccccc2oc2c[n+](Cc3ccccc3)ccc12.[Br-]` [Compound 5, 2-Benzyl-10-oxo-10H-9-oxa-2-azonia-anthracene bromide], for which the viability at 48 h, 5.2 µM in data set [1] (5.2 μM (GI50)) amounted to 71%. Besides, the viability at 48 h, 7.8 µM in data set [1] (7.8 μM (1.5× GI50)) stood at 49%. Moreover, in data set [2], the IC50 (in general, the point on the concentration scale where inhibition reaches its midpoint) is 4.8 ± 0.1 µM. Also, the “% Apoptosis” value is reported as 7.2 ± 1.4% in data set [3] (5.2 μM, Blank 7.0 ± 0.6) and 7.3 ± 0.9% in data set [3] (7.8 μM, Blank 7.0 ± 0.6). Moreover, in data set [3], the “Induction of apoptosis at cytotoxic concentrations” value is “did not induce apoptosis”. The “Inhibition of tumor growth vs control group” value in data set [4] (5 mg/kg i.p. daily for three weeks) was “considerable inhibition of tumor growth”; in data set [4] (10 mg/kg i.p. daily for three weeks), “accentuated this difference to statistically significant values”. Also, the “Manifestations of toxicity (death and body weight loss)” value in data set [4] (5 and 10 mg/kg i.p., three weeks) is reported as “no evident manifestations of toxicity”.
For the molecule `O=c1c2ccccc2sc2c[n+](Cc3ccccc3)ccc12.[Br-]` [Compound 8, 2-Benzyl-5-oxo-5H-thiochromeno[2,3-c]pyridin-2-ium bromide], the viability at 48 h, 3.2 µM in data set [1] (3.2 μM (GI50)) was found to be 57%. Further, in data set [1] (4.8 μM (1.5× GI50)), the viability at 48 h, 4.8 µM amounted to 29%. Besides, the half-inhibitory concentration (IC50) in data set [5] stood at 3.7 ± 0.03 µM. In addition, the “% Apoptosis” value in data set [3] (3.2 μM, Blank 5.2 ± 0.9) was 6.7 ± 1.4%; in data set [3] (4.8 μM, Blank 5.2 ± 0.9), 12.5 ± 1.7 %. Moreover, the “Induction of apoptosis at cytotoxic concentrations” value in data set [3] is given as “induced apoptosis”.
